# Values quoted from earlier work, collected in patent US10369266B2, “Multipart fluid system and a system for citrate anticoagulation in an extracorporeal blood circuit” (Gambro Lundia AB, priority 2013, dated 2019).
# Tested on: endothelial inflammation and dysfunction
# Conditions: citrate 0.8 mM; hypoglycemic state; in vitro
smiles,measurement,value
O=C(O)CC(O)(CC(=O)O)C(=O)O [citrate],effect on endothelial inflammation and dysfunction,reduces endothelial inflammation and dysfunction
